Laboratory results published in ChEMBL document CHEMBL1201862, “PubChem BioAssay data set” (2004).
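Where inhibition never reached the appropriate level, the endpoint shown equals the highest concentration tested. Otherwise, values were interpolated linearly from a five-concentration, 48-hour dose response in 96-well plates. Abbreviation: GI50, concentration required for 50% inhibition of growth.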 Calls of active or inactive are those of the source. Rule as the data show it: active = GI50 up to about 1.1 µM and inactive = higher.

How the values were obtained:
Experiment in all cases: inhibition of tumour cell growth, NCI panel, 48 h
786-0 = tested on: 786-0
ACHN = tested on: ACHN
COLO 205 = tested on: COLO 205
EKVX = tested on: EKVX
HCT-15 = tested on: HCT-15
HOP-92 = tested on: HOP-92
HT-29 = tested on: HT-29
Hs-578T = tested on: Hs-578T
M14 = tested on: M14
MCF7 = tested on: MCF7
NCI-H23 = tested on: NCI-H23
NCI-H460 = tested on: NCI-H460
NCI-H522 = tested on: NCI-H522
OVCAR-3 = tested on: OVCAR-3
OVCAR-8 = tested on: OVCAR-8
PC-3 = tested on: PC-3
SF-295 = tested on: SF-295
SF-539 = tested on: SF-539
UACC-257 = tested on: UACC-257
UO-31 = tested on: UO-31

Compound	GI50 (786-0)	GI50 (ACHN)	GI50 (COLO 205)	GI50 (EKVX)	GI50 (HCT-15)	GI50 (HOP-92)	GI50 (HT-29)	GI50 (Hs-578T)	GI50 (M14)	GI50 (MCF7)	GI50 (NCI-H23)	GI50 (NCI-H460)	GI50 (NCI-H522)	GI50 (OVCAR-3)	GI50 (OVCAR-8)	GI50 (PC-3)	GI50 (SF-295)	GI50 (SF-539)	GI50 (UACC-257)	GI50 (UO-31)
COc1ccc(N2C(=O)C(C)SC2c2cc3cc(Br)ccc3nc2Cl)cc1 (stereo not given)	45.8 µM (inactive)	48.8 µM (inactive)	35.5 µM (inactive)	21.6 µM (inactive)	32.9 µM	22.9 µM (inactive)	32.4 µM (inactive)	38.5 µM (inactive)	44.4 µM (inactive)	33.2 µM (inactive)	33.6 µM (inactive)	30.9 µM (inactive)	21.3 µM (inactive)	34.9 µM (inactive)	37.5 µM (inactive)	25.4 µM (inactive)	33.1 µM (inactive)	27.4 µM (inactive)	30.7 µM (inactive)	33.6 µM (inactive)
Cc1oc2c(c1C)S(=O)(=O)C(C#N)=C(c1ccccc1)N2	> 100 µM (inactive)	> 100 µM (inactive)	> 100 µM (inactive)	> 100 µM (inactive)	> 100 µM	> 100 µM (inactive)	> 100 µM (inactive)	> 100 µM (inactive)	> 100 µM (inactive)	> 100 µM (inactive)	> 100 µM (inactive)	> 100 µM (inactive)	> 100 µM (inactive)	> 100 µM (inactive)	> 100 µM (inactive)	> 100 µM (inactive)	> 100 µM (inactive)	> 100 µM (inactive)	> 100 µM (inactive)	> 100 µM (inactive)
C=C1C(=O)OC2/C=C(\CO)C3OC3C3OC3(C)CC(OC(=O)/C(=C/C)COC(C)=O)C12 (stereo not given)	2.29 µM (inactive)	3.4 µM (inactive)	1.63 µM (inactive)	3.81 µM (inactive)	2.12 µM	2.01 µM (inactive)	3.89 µM (inactive)	3.7 µM (inactive)	2.75 µM (inactive)	3.94 µM (inactive)	6.93 µM (inactive)	12.2 µM (inactive)	0.313 µM (active)	3.52 µM (inactive)	2.79 µM (inactive)	14 µM (inactive)	10 µM (inactive)	2.91 µM (inactive)	3.84 µM (inactive)	10.6 µM (inactive)
Oc1ncc(Cl)c(O)n1	> 100 µM (inactive)	> 100 µM (inactive)	> 100 µM (inactive)	> 100 µM (inactive)	> 100 µM	> 100 µM (inactive)	> 100 µM (inactive)	> 100 µM (inactive)	> 100 µM (inactive)	> 100 µM (inactive)	> 100 µM (inactive)	> 100 µM (inactive)	> 100 µM (inactive)	> 100 µM (inactive)	> 100 µM (inactive)	> 100 µM (inactive)	> 100 µM (inactive)	> 100 µM (inactive)	> 100 µM (inactive)	> 100 µM (inactive)
Cc1ccc(C(=O)NCc2ccccc2)cc1/N=N/N(C)C	> 100 µM (inactive)	> 75.3 µM (inactive)	> 100 µM (inactive)	> 100 µM (inactive)	> 83 µM	65 µM (inactive)	> 58.7 µM (inactive)	> 100 µM (inactive)	> 100 µM (inactive)	> 100 µM (inactive)	> 100 µM (inactive)	> 100 µM (inactive)	27.7 µM (inactive)	44.3 µM (inactive)	> 100 µM (inactive)	71.3 µM (inactive)	> 71.9 µM (inactive)	> 100 µM (inactive)	21.4 µM (inactive)	> 31.5 µM (inactive)
COc1ccc(NCc2c(O)ccc3ccccc23)cc1	16.4 µM (inactive)	13.4 µM (inactive)	22.8 µM (inactive)	18.9 µM (inactive)	13.7 µM	16.1 µM (inactive)	21.6 µM (inactive)	60.5 µM (inactive)	14 µM (inactive)	28.8 µM (inactive)	36.3 µM (inactive)	49.9 µM (inactive)	14.8 µM (inactive)	27.2 µM (inactive)	15.8 µM (inactive)	17.1 µM (inactive)	43 µM (inactive)	13.2 µM (inactive)	18.4 µM (inactive)	11.3 µM (inactive)
C#CCSc1cnc2ccccc2c1Sc1c[nH]c2ccccc2c1=O	12.4 µM (inactive)	13.6 µM (inactive)	24 µM (inactive)	19.1 µM (inactive)	16.1 µM	16.1 µM (inactive)	21.2 µM (inactive)	48.2 µM (inactive)	17 µM (inactive)	6.82 µM (inactive)	15.4 µM (inactive)	11.7 µM (inactive)	6.58 µM (inactive)	23.4 µM (inactive)	24.7 µM (inactive)	17.6 µM (inactive)	24.1 µM (inactive)	28.6 µM (inactive)	17.6 µM (inactive)	2.14 µM (inactive)
Cc1cc(O)c2c(c1)C(=O)C(c1c(C)cc3c(c1O)C(=O)C1OC1C3=O)=CC2=O (stereo not given)	1.64 µM (inactive)	0.885 µM (active)	0.561 µM (active)	3.15 µM (inactive)	1.16 µM	0.839 µM (active)	3.36 µM (inactive)	4.16 µM (inactive)	2.96 µM (inactive)	1.84 µM (inactive)	8.97 µM (inactive)	7.87 µM (inactive)	0.469 µM (active)	1.83 µM (inactive)	4.11 µM (inactive)	12.5 µM (inactive)	16.5 µM (inactive)	4.48 µM (inactive)	4.74 µM (inactive)	1.8 µM (inactive)
CN(C)c1ccc(/C=C(/NC(=O)c2ccccc2)C(=O)Nc2ccccc2C(=O)O)cc1	> 100 µM (inactive)	> 100 µM (inactive)	> 100 µM (inactive)	> 100 µM (inactive)	> 100 µM	> 100 µM (inactive)	> 100 µM (inactive)	> 100 µM (inactive)	> 100 µM (inactive)	> 100 µM (inactive)	> 100 µM (inactive)	> 100 µM (inactive)	> 100 µM (inactive)	> 100 µM (inactive)	> 100 µM (inactive)	> 100 µM (inactive)	> 100 µM (inactive)	> 100 µM (inactive)	> 100 µM (inactive)	> 100 µM (inactive)
CC1=C(C(N)=O)C(c2ccncc2)C(C#N)=C2SCC(=O)N12 (stereo not given)	> 100 µM (inactive)	> 100 µM (inactive)	> 100 µM (inactive)	> 100 µM (inactive)	> 100 µM	> 100 µM (inactive)	> 100 µM (inactive)	> 100 µM (inactive)	> 100 µM (inactive)	> 100 µM (inactive)	> 100 µM (inactive)	> 100 µM (inactive)	> 100 µM (inactive)	> 100 µM (inactive)	> 100 µM (inactive)	> 100 µM (inactive)	> 100 µM (inactive)	> 100 µM (inactive)	> 100 µM (inactive)	> 100 µM (inactive)
Clc1cc(N/N=C(/c2ccccc2)c2ncccn2)ncn1	21.7 µM (inactive)	4.78 µM (inactive)	4.29 µM (inactive)	17 µM (inactive)	17.9 µM	14.7 µM (inactive)	2.58 µM (inactive)	24.5 µM (inactive)	29 µM (inactive)	14.8 µM (inactive)	21.4 µM (inactive)	19.3 µM (inactive)	2.56 µM (inactive)	20.2 µM (inactive)	16.5 µM (inactive)	32.7 µM (inactive)	24.6 µM (inactive)	21.9 µM (inactive)	20.9 µM (inactive)	19.5 µM (inactive)
CCC12CCCN3CCc4c(n(c5ccccc45)C(O)(C(=O)OC)C1)C32 (stereo not given)	> 100 µM (inactive)	> 100 µM (inactive)	> 100 µM (inactive)	> 100 µM (inactive)	> 100 µM	> 100 µM (inactive)	> 100 µM (inactive)	> 100 µM (inactive)	> 100 µM (inactive)	> 100 µM (inactive)	> 100 µM (inactive)	> 100 µM (inactive)	> 100 µM (inactive)	> 100 µM (inactive)	> 100 µM (inactive)	> 100 µM (inactive)	> 100 µM (inactive)	> 100 µM (inactive)	> 100 µM (inactive)	> 100 µM (inactive)
